Assay results taken from ChEMBL document CHEMBL4229454, “Structural optimization and in vitro profiling of N-phenylbenzamide-based farnesoid X receptor antagonists” (Bioorg Med Chem, 2018).
≈ marks a conversion by molar mass, not a printed value. One block for each compound: values may come before it. Calls of active or inactive are those of the source. The rule behind the calls is not given here.

Key:
[1] = biological target: T1, Bile acid receptor (Homo sapiens) (UniProt Q96RI1); experiment: Antagonist activity at full length human FXR expressed in HeLa cells co-expressing BSEP-pGL3/pSG5-hRXR assessed as inhibition of GW4064-induced receptor activation at 30 uM after 24 hrs by luciferase reporter gene assay; type: cell-based
T1 sequence (whole entry): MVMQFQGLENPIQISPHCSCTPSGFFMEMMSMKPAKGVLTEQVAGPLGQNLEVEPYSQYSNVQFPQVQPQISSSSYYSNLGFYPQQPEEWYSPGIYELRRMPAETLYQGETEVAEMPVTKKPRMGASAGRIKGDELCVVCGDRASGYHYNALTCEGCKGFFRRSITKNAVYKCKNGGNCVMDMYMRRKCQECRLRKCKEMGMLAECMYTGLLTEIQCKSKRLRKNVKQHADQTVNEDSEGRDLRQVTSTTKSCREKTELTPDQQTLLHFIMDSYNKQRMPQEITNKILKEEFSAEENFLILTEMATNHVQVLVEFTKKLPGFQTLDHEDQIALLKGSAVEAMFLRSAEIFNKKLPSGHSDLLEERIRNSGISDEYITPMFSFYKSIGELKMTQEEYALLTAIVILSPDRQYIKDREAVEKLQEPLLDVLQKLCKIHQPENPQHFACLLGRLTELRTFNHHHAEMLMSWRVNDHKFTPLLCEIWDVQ

[2] = biological target: Luciferin 4-monooxygenase (Photinus pyralis) (UniProt P08659); experiment: Inhibition of GW4064-induced firefly luciferase expression in HeLa cells co-expressing full length human FXR, BSEP-pGL3 and pSG5-hRXR at 1 uM treated at 23 hrs post GW4064 treatment for 1 hr by luminescence assay; type: cell-based
Sequence of Luciferin 4-monooxygenase (Photinus pyralis) (P08659 whole entry): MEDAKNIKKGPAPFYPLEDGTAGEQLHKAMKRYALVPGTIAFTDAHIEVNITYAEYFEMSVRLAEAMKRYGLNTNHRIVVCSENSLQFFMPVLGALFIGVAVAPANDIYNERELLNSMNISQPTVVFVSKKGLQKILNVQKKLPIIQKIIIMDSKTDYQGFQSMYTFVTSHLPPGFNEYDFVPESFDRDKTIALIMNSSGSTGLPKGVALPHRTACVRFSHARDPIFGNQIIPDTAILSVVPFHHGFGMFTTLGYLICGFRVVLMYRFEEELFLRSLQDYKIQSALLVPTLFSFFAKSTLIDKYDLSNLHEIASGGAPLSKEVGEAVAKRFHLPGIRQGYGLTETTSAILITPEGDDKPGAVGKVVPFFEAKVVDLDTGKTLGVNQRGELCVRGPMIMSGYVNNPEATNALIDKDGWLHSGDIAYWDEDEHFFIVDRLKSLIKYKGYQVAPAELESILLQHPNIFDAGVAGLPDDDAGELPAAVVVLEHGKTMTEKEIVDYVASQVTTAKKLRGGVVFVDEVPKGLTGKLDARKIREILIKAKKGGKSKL

[3] = tested on: HepG2; experiment: Cytotoxicity against human HepG2 cells assessed as reduction in cell viability up to 100 uM after 48 hrs by WST1 assay; type: cell-based; conditions: hepg2, 48 h
[4] = tested on: HeLa; experiment: Cytotoxicity against human HeLa cells co-expressing full length human FXR, BSEP-pGL3 and pSG5-hRXR assessed as reduction in cell viability up to 50 uM after 48 hrs by WST1 assay; type: ADME, cell-based
[5] = tested on: HEK293; experiment: Cytotoxicity against HEK293 cells assessed as reduction in cell viability at >10 uM after 48 hrs by WST1 assay; type: cell-based; conditions: human, hek293, 48 h
[6] = Metabolic stability in Sprague-Dawley rat liver microsomes assessed as parent compound remaining at 10 uM in presence of NADPH measured immediately by HPLC analysis; type: ADME, microsome; conditions: read-out: Stability
[7] = Metabolic stability in Sprague-Dawley rat liver microsomes assessed as parent compound remaining at 10 uM in presence of NADPH measured after 15 mins by HPLC analysis; type: ADME, microsome; conditions: read-out: Stability
[8] = Metabolic stability in Sprague-Dawley rat liver microsomes assessed as parent compound remaining at 10 uM in presence of NADPH measured after 30 mins by HPLC analysis; type: ADME, microsome; conditions: read-out: Stability
[9] = Metabolic stability in Sprague-Dawley rat liver microsomes assessed as parent compound remaining at 10 uM in presence of NADPH measured after 60 mins by HPLC analysis; type: ADME, microsome; conditions: read-out: Stability
[10] = Aqueous solubility of the compound; type: physicochemical; conditions: water
[11] = biological target: T2, Peroxisome proliferator-activated receptor gamma (Homo sapiens) (UniProt P37231); experiment: Agonist activity at GAL4-fused human PPARgamma LBD expressed in HEK293T cells at 1 uM after 12 to 14 hrs by luciferase reporter gene assay; type: cell-based
T2 sequence (whole entry): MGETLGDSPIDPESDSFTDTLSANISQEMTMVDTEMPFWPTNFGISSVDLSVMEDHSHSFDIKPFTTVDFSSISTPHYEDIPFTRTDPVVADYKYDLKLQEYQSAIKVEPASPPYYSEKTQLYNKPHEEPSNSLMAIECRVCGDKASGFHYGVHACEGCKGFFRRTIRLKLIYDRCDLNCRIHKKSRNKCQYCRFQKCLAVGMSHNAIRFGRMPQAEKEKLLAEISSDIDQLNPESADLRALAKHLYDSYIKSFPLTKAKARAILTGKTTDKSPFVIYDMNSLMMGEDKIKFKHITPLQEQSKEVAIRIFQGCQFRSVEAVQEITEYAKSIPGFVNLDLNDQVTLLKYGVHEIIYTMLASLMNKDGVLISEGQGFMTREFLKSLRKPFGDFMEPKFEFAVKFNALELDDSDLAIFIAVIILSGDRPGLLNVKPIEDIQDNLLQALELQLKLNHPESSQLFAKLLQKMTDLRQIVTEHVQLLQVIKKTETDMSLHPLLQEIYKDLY

[12] = biological target: T3, Nuclear receptor subfamily 1 group I member 3 (Homo sapiens, UniProt Q14994); experiment: Agonist activity at GAL4-fused human CAR LBD expressed in HEK293T cells at 1 uM after 12 to 14 hrs by luciferase reporter gene assay; type: cell-based
T3 sequence (Q14994 whole entry): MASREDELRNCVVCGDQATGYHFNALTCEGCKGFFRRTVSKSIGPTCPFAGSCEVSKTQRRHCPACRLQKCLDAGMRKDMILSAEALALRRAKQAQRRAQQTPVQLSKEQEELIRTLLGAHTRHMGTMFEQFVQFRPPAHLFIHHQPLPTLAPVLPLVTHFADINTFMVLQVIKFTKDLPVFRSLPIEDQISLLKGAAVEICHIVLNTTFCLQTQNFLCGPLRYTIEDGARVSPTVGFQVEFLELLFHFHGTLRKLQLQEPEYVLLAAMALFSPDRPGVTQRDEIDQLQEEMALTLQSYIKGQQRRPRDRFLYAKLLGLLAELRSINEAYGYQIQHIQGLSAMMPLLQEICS

[13] = biological target: T4, Retinoic acid receptor RXR-alpha (Homo sapiens) (UniProt P19793); experiment: Agonist activity at GAL4-fused human RXRalpha LBD expressed in HEK293T cells at 1 uM after 12 to 14 hrs by luciferase reporter gene assay; type: cell-based
T4 sequence (whole entry): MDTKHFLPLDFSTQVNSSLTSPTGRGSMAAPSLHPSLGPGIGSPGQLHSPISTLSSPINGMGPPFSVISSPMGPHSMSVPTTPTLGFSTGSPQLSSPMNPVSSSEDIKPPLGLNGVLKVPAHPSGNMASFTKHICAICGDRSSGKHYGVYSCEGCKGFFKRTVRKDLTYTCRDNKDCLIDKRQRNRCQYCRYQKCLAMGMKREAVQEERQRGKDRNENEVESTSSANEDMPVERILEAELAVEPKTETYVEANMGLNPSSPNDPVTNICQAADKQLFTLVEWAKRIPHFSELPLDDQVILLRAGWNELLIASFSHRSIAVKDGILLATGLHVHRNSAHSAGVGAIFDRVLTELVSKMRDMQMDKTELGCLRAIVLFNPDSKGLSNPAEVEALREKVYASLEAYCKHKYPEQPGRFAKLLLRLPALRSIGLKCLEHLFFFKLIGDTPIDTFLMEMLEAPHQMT

[14] = biological target: T5, Oxysterols receptor LXR-alpha (Homo sapiens) (UniProt Q13133); experiment: Agonist activity at GAL4-fused human LXRalpha LBD expressed in HEK293T cells at 1 uM after 12 to 14 hrs by luciferase reporter gene assay; type: cell-based
T5 sequence (whole entry): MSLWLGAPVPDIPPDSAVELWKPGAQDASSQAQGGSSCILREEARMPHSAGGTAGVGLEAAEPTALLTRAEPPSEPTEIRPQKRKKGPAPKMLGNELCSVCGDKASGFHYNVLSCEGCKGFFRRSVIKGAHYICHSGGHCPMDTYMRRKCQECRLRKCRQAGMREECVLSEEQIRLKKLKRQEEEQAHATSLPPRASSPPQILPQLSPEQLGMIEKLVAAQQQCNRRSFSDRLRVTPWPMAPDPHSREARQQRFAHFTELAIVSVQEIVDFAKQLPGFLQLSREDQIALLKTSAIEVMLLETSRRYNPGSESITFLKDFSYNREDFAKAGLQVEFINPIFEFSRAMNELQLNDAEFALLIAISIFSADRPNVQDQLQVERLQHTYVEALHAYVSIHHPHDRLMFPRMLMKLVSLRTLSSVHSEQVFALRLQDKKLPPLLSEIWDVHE

[15] = biological target: T2, Peroxisome proliferator-activated receptor gamma (Homo sapiens); experiment: Antagonist activity at GAL4-fused human PPARgamma LBD expressed in HEK293T cells at 1 uM after 12 to 14 hrs by luciferase reporter gene assay; type: cell-based
[16] = biological target: T3, Nuclear receptor subfamily 1 group I member 3; experiment: Antagonist activity at GAL4-fused human CAR LBD expressed in HEK293T cells at 1 uM after 12 to 14 hrs by luciferase reporter gene assay; type: cell-based
[17] = biological target: T4, Retinoic acid receptor RXR-alpha (Homo sapiens); experiment: Antagonist activity at GAL4-fused human RXRalpha LBD expressed in HEK293T cells at 1 uM after 12 to 14 hrs by luciferase reporter gene assay; type: cell-based
[18] = biological target: T5, Oxysterols receptor LXR-alpha (Homo sapiens); experiment: Antagonist activity at GAL4-fused human LXRalpha LBD expressed in HEK293T cells at 1 uM after 12 to 14 hrs by luciferase reporter gene assay; type: cell-based
[19] = tested on: HepG2; experiment: Cytotoxicity against human HepG2 cells assessed as reduction in cell viability at 100 uM after 48 hrs by WST1 assay relative to control; type: cell-based; conditions: hepg2, 48 h

Compound: O=C(O)Cc1ccc(NC(=O)c2ccccc2-c2ccccc2)cc1
inhibition [1]: inactive

remaining at 0 min, 10 µM [6]: 100%
remaining at 0.25 h, 10 µM [7]: 98%
remaining at 0.5 h, 10 µM [8]: 96%
remaining at 1 h, 10 µM [9]: 97%
solubility [10]: 16 µg/mL (≈ 46.9 µM)
Activity [11]: inactive
Activity [12]: Not Active
Activity [13]: inactive
Activity [14]: inactive
inhibition [15]: inactive
inhibition (INH) [16]: Not Active
inhibition [17]: inactive
inhibition [18]: inactive
Compound: COc1cc(C(C)(C)C)ccc1C(=O)Nc1ccc(CC(=O)O)cc1
inhibition [2]: inactive
Activity [3]: Non-Toxic
Activity [4]: Non-Toxic
Activity [5]: Non-Toxic

Compound: COc1cc(C(=O)Nc2ccc(CC(=O)O)cc2)ccc1C(C)(C)C
Activity [19]: 112%

Compound: COc1ccc(C(C)(C)C)cc1C(=O)Nc1ccc(CC(=O)O)cc1
inhibition [1]: inactive

Compound: CC(C)(C)c1ccc(C(=O)Nc2ccccc2CC(=O)O)cc1
Activity [19]: 118%

Compound: CC(C)(C)c1ccc(C(=O)Nc2cccc(CC(=O)O)c2)cc1
inhibition [2]: inactive
